From the supplement of paper PMC7214452

Key:
Assay in all cases: normalized area under the dose-response curve (viability relative to DMSO control) (fraction); higher = less sensitive (more viable cells)
Details in all cases: exposure time not given
[1] = test system: Mino (cancer type: Mantle)
Procedure: (§1)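 25 myeloma and 15 non-Hodgkin lymphoma cell lines were exposed to each of 76 drugs as 7-point log dilutions (0.01 nM–10 µM) in duplicate. Viability was read with CellTiter-Glo and normalised to DMSO (0.1%) and staurosporine (10 µM) plate controls. Normalised AUC was calculated by the trapezoidal method relative to the negative control.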

[2] = test system: L363 (cancer type: MM)
Procedure: as §1

[3] = test system: OCI-LY1 (cancer type: DLBCL)
Procedure: as §1

[4] = test system: KMS11 (cancer type: MM)
Procedure: as §1

[5] = test system: KMS34 (cancer type: MM)
Procedure: as §1

[6] = test system: OCI-MY5 (cancer type: MM)
Procedure: as §1

[7] = test system: SU-DHL6 (cancer type: DLBCL)
Procedure: as §1

[8] = test system: LP1 (cancer type: MM)
Procedure: as §1

[9] = test system: JeKo-1 (cancer type: Mantle)
Procedure: as §1

[10] = test system: SR-786 (cancer type: TCL)
Procedure: as §1

[11] = test system: OCI-LY3 (cancer type: DLBCL)
Procedure: as §1

[12] = test system: OCI-MY5/CRBN (cancer type: MM)
Procedure: as §1

[13] = test system: JJN3 (cancer type: MM)
Procedure: as §1

[14] = test system: Granta-519 (cancer type: Mantle)
Procedure: as §1

[15] = test system: HuT 78 (cancer type: TCL)
Procedure: as §1

[16] = test system: KMS12PE (cancer type: MM)
Procedure: as §1

[17] = test system: My-La (cancer type: TCL)
Procedure: as §1

[18] = test system: Karpas-299 (cancer type: TCL)
Procedure: as §1

[19] = test system: RPMI 8226 (cancer type: MM)
Procedure: as §1

[20] = test system: Se-Ax (cancer type: TCL)
Procedure: as §1

[21] = test system: FR4 (cancer type: MM)
Procedure: as §1

[22] = test system: AMO1 (cancer type: MM)
Procedure: as §1

[23] = test system: SU-DHL2 (cancer type: DLBCL)
Procedure: as §1

[24] = test system: MM1.S (cancer type: MM)
Procedure: as §1

[25] = test system: NCI-H929 (cancer type: MM)
Procedure: as §1

[26] = test system: MM1.R (cancer type: MM)
Procedure: as §1

[27] = test system: OCI-MY5/Vec (cancer type: MM)
Procedure: as §1

[28] = test system: SKMM2 (cancer type: MM)
Procedure: as §1

[29] = test system: OCI-MY7 (cancer type: MM)
Procedure: as §1

[30] = test system: JVM2 (cancer type: Mantle)
Procedure: as §1

[31] = test system: U266 (cancer type: MM)
Procedure: as §1

[32] = test system: KMS26 (cancer type: MM)
Procedure: as §1

[33] = test system: KMS28BM (cancer type: MM)
Procedure: as §1

[34] = test system: OPM2 (cancer type: MM)
Procedure: as §1

[35] = test system: XG2 (cancer type: MM)
Procedure: as §1

[36] = test system: KMS18 (cancer type: MM)
Procedure: as §1

[37] = test system: KMS28PE (cancer type: MM)
Procedure: as §1

[38] = test system: EJM (cancer type: MM)
Procedure: as §1

[39] = test system: OCI-LY19 (cancer type: DLBCL)
Procedure: as §1

[40] = test system: SU-DHL1 (cancer type: TCL)
Procedure: as §1

| Compound | normalized area under the dose-response curve [1] | normalized area under the dose-response curve [2] | normalized area under the dose-response curve [3] | normalized area under the dose-response curve [4] | normalized area under the dose-response curve [5] | normalized area under the dose-response curve [6] | normalized area under the dose-response curve [7] | normalized area under the dose-response curve [8] | normalized area under the dose-response curve [9] | normalized area under the dose-response curve [10] | normalized area under the dose-response curve [11] | normalized area under the dose-response curve [12] | normalized area under the dose-response curve [13] | normalized area under the dose-response curve [14] | normalized area under the dose-response curve [15] | normalized area under the dose-response curve [16] | normalized area under the dose-response curve [17] | normalized area under the dose-response curve [18] | normalized area under the dose-response curve [19] | normalized area under the dose-response curve [20] | normalized area under the dose-response curve [21] | normalized area under the dose-response curve [22] | normalized area under the dose-response curve [23] | normalized area under the dose-response curve [24] | normalized area under the dose-response curve [25] | normalized area under the dose-response curve [26] | normalized area under the dose-response curve [27] | normalized area under the dose-response curve [28] | normalized area under the dose-response curve [29] | normalized area under the dose-response curve [30] | normalized area under the dose-response curve [31] | normalized area under the dose-response curve [32] | normalized area under the dose-response curve [33] | normalized area under the dose-response curve [34] | normalized area under the dose-response curve [35] | normalized area under the dose-response curve [36] | normalized area under the dose-response curve [37] | normalized area under the dose-response curve [38] | normalized area under the dose-response curve [39] | normalized area under the dose-response curve [40] |
| --- | --- | --- | --- | --- | --- | --- | --- | --- | --- | --- | --- | --- | --- | --- | --- | --- | --- | --- | --- | --- | --- | --- | --- | --- | --- | --- | --- | --- | --- | --- | --- | --- | --- | --- | --- | --- | --- | --- | --- | --- |
| CNC(=O)c1cc(Oc2ccc(NC(=O)Nc3ccc(Cl)c(C(F)(F)F)c3)cc2)ccn1 [Sorafenib] | 0.872 | 0.578 | 0.913 | 0.535 | 0.239 | 0.459 | 0.937 | 0.495 | 0.922 | 0.824 | 0.955 | 0.589 | 0.435 | 0.877 | 0.704 | 0.6 | 0.836 | 0.812 | 0.546 | 0.655 | 0.594 | 0.578 | 0.901 | 0.57 | 0.57 | 0.61 | 0.499 | 0.56 | 0.59 | 0.747 | 0.45 | 0.634 | 0.611 | 0.539 | 0.543 | 0.471 | 0.752 | 0.663 | 0.873 | 0.576 |
| CCN(CC)CCNC(=O)c1c(C)[nH]c(/C=C2\C(=O)Nc3ccc(F)cc32)c1C [Sunitinib] | 0.761 | 0.648 | 0.818 | 0.641 | 0.459 | 0.576 | 0.875 | 0.651 | 0.729 | 0.652 | 0.892 | 0.816 | 0.638 | 0.863 | 0.536 | 0.7 | 0.772 | 0.722 | 0.538 | 0.69 | 0.681 | 0.519 | 0.8 | 0.58 | 0.56 | 0.61 | 0.82 | 0.734 | 0.72 | 0.605 | 0.698 | 0.714 | 0.739 | 0.56 | 0.46 | 0.665 | 0.519 | 0.587 | 0.794 | 0.541 |
| CO[C@H]1C[C@@H]2CC[C@@H](C)[C@@](O)(O2)C(=O)C(=O)N2CCCC[C@H]2C(=O)O[C@H]([C@H](C)C[C@@H]2CC[C@@H](OC(=O)C(C)(CO)CO)[C@H](OC)C2)CC(=O)[C@H](C)/C=C(\C)[C@@H](O)[C@@H](OC)C(=O)[C@H](C)C[C@H](C)/C=C/C=C/C=C/1C [Temsirolimus] | 0.691 | 0.7 | 0.685 | 0.752 | 0.559 | 0.775 | 0.72 | 0.746 | 0.744 | 0.745 | 0.648 | 0.772 | 0.774 | 0.695 | 0.722 | 0.69 | 0.764 | 0.585 | 0.763 | 0.663 | 0.789 | 0.695 | 0.576 | 0.63 | 0.74 | 0.68 | 0.884 | 0.912 | 0.79 | 0.559 | 0.752 | 0.978 | 0.859 | 0.749 | 0.725 | 0.754 | 0.696 | 0.823 | 0.697 | 0.71 |
| C[C@@H]1CCN(C(=O)CC#N)C[C@@H]1N(C)c1ncnc2[nH]ccc12 [Tofacitinib] | 0.957 | 0.904 | 0.994 | 0.933 | 0.89 | 0.944 | 0.969 | 0.858 | 1.05 | 0.856 | 0.952 | 0.97 | 0.966 | 0.94 | 0.879 | 1.01 | 0.877 | 0.891 | 1 | 0.929 | 1 | 0.901 | 0.93 | 0.85 | 0.92 | 0.92 | 1.02 | 0.978 | 0.95 | 0.931 | 0.874 | 0.957 | 0.962 | 0.938 | 0.838 | 1.01 | 0.936 | 0.941 | 0.996 | 0.97 |
